Laboratory results reported in patent publication US10201587B2, “Methods of inhibiting and treating biofilms using glycopeptide antibiotics” (MELINTA THERAPEUTICS, INC., priority 2008, dated 2019).
In brackets after ≈: the same amount, converted by molar mass. Where two headings read alike, the source gives them in different places.

How the values were obtained:
MRSA ATCC 33591 [1] = experiment: Time-kill in nutrient-depleted CAMHB; type: cell-based, S. aureus; conditions: stationary-phase, free-trough concentration 0.5 μg/mL, 24 hours
Protocol: (§1) Nutrient-depleted CAMHB from each respective strain was prepared by 3 rounds of inoculation of CAMHB with exponential-phase bacteria, incubation overnight at 37° C. with rotation (225 rpm) and centrifugation (8000×g for 30 minutes) to remove bacteria. After the final round of inoculation, growth and centrifugation, the pH of the nutrient-depleted CAMHB was adjusted to pH=7.0 and the spent medium was filter-sterilized using a […] membrane (Corning Incorporated, Corning, N.Y.).
(§2) Nutrient-depleted CAMHB containing diluted antimicrobial agents was inoculated with stationary-phase bacteria from overnight cultures of the S. aureus strains at approximately 10^7 colony-forming units (CFU)/mL. Other experiments compared the killing of stationary- and exponential-phase S. aureus ATCC 29213 when inoculated into nutrient-depleted CAMHB containing the test agents. For assays involving daptomycin, nutrient-depleted CAMHB was supplemented with 50 μg/ml CaCl2 (8). All time-kill studies were performed in 96-well deep-well plates at 37° C. with rotation (225 rpm) in a total volume of 750 μL. Bacteria were enumerated by serial-dilution plating. Bacteriostatic and bactericidal activity of the antimicrobial agents were defined as a reduction in viable cell counts of <3 or ≥3 log at 24 hours relative to the starting inoculum, respectively (33). Experiments were repeated at least three times and produced similar results; results from one experiment are presented.

MSSA ATCC 29213 [2] = experiment: Time-kill in nutrient-depleted CAMHB; type: cell-based, S. aureus; conditions: stationary-phase, estimated free-trough concentration 0.5 μg/mL, 24 hours
Protocol: as §1, §2

VRSA VRS5 [3] = experiment: Time-kill in nutrient-depleted CAMHB; type: cell-based, S. aureus
Protocol: as §1, §2

S. aureus ATCC 29213 = experiment: Membrane permeability, SYTO-9/propidium iodide fluorescence; type: cell-based; conditions: stationary-phase cells, 30 min
Protocol: For membrane permeability assays, bacteria were prepared identically as described above for the membrane depolarization assay with the exception that SYTO-9 and propidium iodide (Invitrogen Corporation) were added at 5 μM and 30 μM, respectively. Experiments were repeated three times and produced similar results; results from one assay are presented.

MRSA ATCC 33591 [4] = experiment: MBEC system in vitro biofilm (MIC and MBEC); type: cell-based, S. aureus
Protocol: (§3) The commercially-available MBEC™ system (Innovotech; Edmonton, AB, Canada) was used following the manufacturer's protocol (17) to establish in vitro biofilms of S. aureus and to determine the minimal biofilm eradication concentration (MBEC) of oritavancin and comparator antimicrobial agents. The MBEC represents the concentration of antimicrobial agent required to sterilize the biofilm after 24 hours of exposure. The MBEC™ system also allows for the determination of the minimal inhibitory concentration (MIC) of the test agent against planktonic cells under the conditions of the biofilm assay.
(§4) 150 μL of bacterial inocula at 10^7 CFU/mL in tryptic soy broth was aliquoted into each well of an MBEC plate. Biofilms were established for 24 hours in a rotary incubator at 37° C. and 150 rpm. For experiments involving 72-hour biofilms, peg lids were transferred each day to 96-well plates containing 150 μL/well of fresh tryptic soy broth and incubated another 24 hours. Peg lids with established biofilms were washed once in sterile saline (200 μL/well) and then placed in plates containing antimicrobial agents diluted in CAMHB (200 μL/well). Antimicrobial agents were serially diluted in CAMHB in 96-well plates and peg lids were exposed for 24 hours or for the indicated times. Following antimicrobial challenge, peg lids were washed once in sterile saline then placed in recovery plates containing CAMHB (200 μL/well). The recovery plates were sonicated for 5 minutes in an ultrasonic sonicating bath (VWR Aquasonic model 550D) at the maximum setting then incubated for 24 hours and the MBECs recorded. MBECs were determined from at least three independent experiments; results represent the ranges of MBECs obtained. To enumerate the biofilm colony forming units (CFUs) on individual control pegs, pegs were broken off the lid using sterile forceps placed in 1 ml sterile saline, sonicated for 5 min and vortexed for 1 min at the highest setting. Bacteria were then enumerated by serial-dilution plating.
(§5) To prevent loss of oritavancin due to binding to vessel surfaces (3), the CLSI now recommends inclusion of 0.002% polysorbate-80 for oritavancin broth microdilution MIC determinations (9).

MSSA ATCC 29213 [5] = experiment: MBEC system in vitro biofilm (MIC and MBEC); type: cell-based, S. aureus; conditions: for MIC: Staphylococcus aureus
Protocol: as §3, §4, §5

VRSA VRS5 [6] = experiment: MBEC system in vitro biofilm (MIC and MBEC); type: cell-based, S. aureus
Protocol: as §3, §4, §5

[7] = tested on: E. faecium ATCC 51559 (VanA VRE); experiment: MBEC plate biofilm eradication; type: cell-based; conditions: 24 h of drug challenge
Text: (§6) The following strains were used for in vitro biofilm studies: vancomycin (VAN)-susceptible Enterococcus faecalis ATCC 29212 (VSE), VAN-resistant E. faecalis ATCC 51299 (VanB VRE), E. faecium ATCC 51559 (VanA VRE), S. epidermidis ATCC 12228 and the slime-producing strain S. epidermidis ATCC 35984. Biofilms were established in MBEC™ Physiology & Genetics Assay plates (Innovotech; Edmonton, Canada).

[8] = tested on: S. epidermidis ATCC 12228; experiment: MBEC plate biofilm eradication; type: cell-based; conditions: single agents
Text: as §6

[9] = tested on: VAN-resistant E. faecalis ATCC 51299 (VanB VRE); experiment: MBEC plate biofilm eradication; type: cell-based; conditions: 24 h of drug challenge
Text: as §6

[10] = tested on: vancomycin (VAN)-susceptible Enterococcus faecalis ATCC 29212 (VSE); experiment: MBEC plate biofilm eradication; type: cell-based; conditions: 24 h of drug challenge
Text: as §6

[11] = tested on: S. epidermidis ATCC 35984; experiment: MBEC plate biofilm eradication, agents in combination; type: cell-based
Text: as §6

MSSA ATCC 29213 [12] = conditions: absence of 0.002% polysorbate-80; cited from earlier work
[13] = humans, cited from earlier work
[14] = 24-hour biofilm, 24 hours of exposure, oritavancin without polysorbate-80
[15] = standard dose (oritavancin 200 mg)

CN[C@H](CC(C)C)C(=O)N[C@H]1C(=O)N[C@@H](CC(N)=O)C(=O)N[C@H]2C(=O)N[C@H]3C(=O)N[C@H](C(=O)N[C@H](C(=O)O)c4cc(O)cc(O)c4-c4cc3ccc4O)[C@H](O[C@H]3C[C@](C)(N)[C@@H](O)[C@H](C)O3)c3ccc(c(Cl)c3)Oc3cc2cc(c3O[C@@H]2O[C@H](CO)[C@@H](O)[C@H](O)[C@H]2O[C@H]2C[C@](C)(NCc3ccc(-c4ccc(Cl)cc4)cc3)[C@@H](O)[C@H](C)O2)Oc2ccc(cc2Cl)[C@H]1O [Oritavancin, N-(4-(4-chlorophenyl)benzyl)A82846B]
reduction in viable cell counts (MRSA ATCC 33591 [1]): approx 0.4 log
reduction in viable cell counts (MSSA ATCC 29213 [2]): approx 2.9 log
activity at the 24-hour time point (VRSA VRS5 [3]; stationary-phase inoculum, fCmax 800 (16 μg/mL)): bactericidal (Bacteriostatic and bactericidal activity of the antimicrobial agents were defined as a reduction in viable cell counts of <3 or ≥3 log at 24 hours relative to the starting inoculum, respectively)
decrease in viable cell counts (VRSA VRS5 [3]; stationary-phase, fCmax, 24 hours): approx 2.2 log
reduction in viable cell counts (VRSA VRS5 [3]; stationary-phase, free-trough concentration 0.5 μg/mL, 24 hours): approx 1.2 log
membrane permeability (SYTO-9 fluorescence) (S. aureus ATCC 29213): increased membrane permeability
MBEC (MRSA ATCC 33591 [4]; [14]): 0.5 to 4 µg/mL
MIC (MRSA ATCC 33591 [4]; Staphylococcus aureus, 24 h): 0.5 to 4 µg/mL (≈ 0.279 to 2.23 µM)
MBEC (MSSA ATCC 29213 [5]; 24-hour biofilm, 1 hour exposure): 4 µg/mL
MBEC (MSSA ATCC 29213 [5]; [14]): 2 to 4 µg/mL
MBEC (MSSA ATCC 29213 [5]; 72-hour biofilms): 8 to 32 µg/mL
MBEC relative to respective planktonic MIC (MSSA ATCC 29213 [5]; 72-hour biofilms, within each experiment): no more than one doubling dilution higher
planktonic MIC relative to CLSI quality control range (MSSA ATCC 29213 [5]; MBEC assay): within quality control range
MIC (MSSA ATCC 29213 [5]; 24 h): 2 µg/mL (≈ 1.12 µM)
MIC (MSSA ATCC 29213 [5]; 72 h, read-out: planktonic MIC): 4 to 32 µg/mL (≈ 2.23 to 17.8 µM)
MBEC (VRSA VRS5 [6]; [14]): 2 to 8 µg/mL
MIC (VRSA VRS5 [6]; Staphylococcus aureus, VRSA, 24 h): 2 to 8 µg/mL (≈ 1.12 to 4.46 µM)
MBEC [7]: 2 to 4 mg/L
MBEC [8]: 2 to 4 mg/L
MBEC [9]: 2 to 4 mg/L
MBEC [10]: 2 to 4 mg/L
MBEC in combination ([11]; combination of ORI and MOX required for sterilization): 4 mg/L
MBEC in combination ([11]; combination of ORI and RFB required for sterilization): 4 mg/L
CLSI quality control range of MIC (MSSA ATCC 29213 [12]): 0.5 to 2 µg/mL
predicted fCmax 800 in plasma ([13]; single 800 mg dose): 16 µg/mL
estimated fCmax in plasma [13, 15]: 4 µg/mL
estimated free trough concentration in plasma [13, 15]: 0.5 µg/mL
